Source: PubChem BioAssay (NCI)
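Five compound concentrations were applied to cells in 96-well plates for 48 hours; endpoints were derived by simple linear interpolation of the resulting dose-response curve. The concentration for 50% growth inhibition is given as GI50. The concentration for full growth arrest is given as TGI.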

What was measured:
Test in all cases: inhibition of tumour cell growth, NCI panel, 48 h
786-0 renal = tested on: 786-0 renal
EKVX NSCLC = tested on: EKVX NSCLC
HCC-2998 colon = tested on: HCC-2998 colon
KM12 colon = tested on: KM12 colon
NCI-H460 lung = tested on: NCI-H460 lung
OVCAR-5 ovarian = tested on: OVCAR-5 ovarian
SF-295 CNS = tested on: SF-295 CNS
UO-31 renal = tested on: UO-31 renal
SN12C renal = tested on: SN12C renal

Row | Structure (SMILES) | TGI (786-0 renal) | TGI (EKVX NSCLC) | TGI (HCC-2998 colon) | TGI (KM12 colon) | TGI (NCI-H460 lung) | TGI (OVCAR-5 ovarian) | TGI (SF-295 CNS) | TGI (UO-31 renal) | TGI (SN12C renal) | GI50 (786-0 renal) | GI50 (EKVX NSCLC) | GI50 (HCC-2998 colon) | GI50 (KM12 colon) | GI50 (NCI-H460 lung) | GI50 (OVCAR-5 ovarian) | GI50 (SF-295 CNS) | GI50 (SN12C renal) | GI50 (UO-31 renal)
1 | COc1ccc(NC(=O)CC(=O)N/N=C/c2ccc(N(CCC#N)S(=O)(=O)c3ccccc3)cc2)cc1 | > 100 µM | > 100 µM | > 100 µM | > 100 µM | > 100 µM | > 100 µM | > 100 µM | > 100 µM |  |  |  |  |  |  |  |  |  | 
2 | COc1ccc(C(=O)C(C(=O)C(=O)Nc2nccs2)c2ccc(OC)cc2)cc1 (stereo unspecified) | > 100 µM |  |  | > 100 µM | > 100 µM | > 100 µM |  | > 100 µM | > 100 µM |  |  |  |  |  |  |  |  | 
3 | COc1cc2c([C@@H](OC(=O)c3ccccc3)c3ccc4c(c3)OCO4)nccc2c(OC)c1OC | > 100 µM | > 100 µM | > 100 µM |  | > 100 µM | > 100 µM | > 100 µM | 24.9 µM | > 100 µM |  |  |  |  |  |  |  |  | 
4 | CCCCN(CCCC)C(=O)C(=O)C(C)C(=O)CC (stereo unspecified) | > 100 µM |  | > 100 µM | > 100 µM | > 100 µM | > 100 µM | > 100 µM | > 100 µM | > 100 µM |  |  |  |  |  |  |  |  | 
5 | Cc1cccc(C)c1NC(=O)CCC(=O)NC(N)=S | > 100 µM | > 100 µM | > 100 µM | > 100 µM | > 100 µM | > 100 µM | > 100 µM | > 100 µM | > 100 µM |  |  |  |  |  |  |  |  | 
6 | Cc1[nH]nc2c1C(=O)C=C(N(CCO)c1ccccc1)C2=O | > 100 µM | > 100 µM | > 100 µM | > 100 µM |  |  | > 100 µM | > 100 µM | > 100 µM |  |  |  |  |  |  |  |  | 
7 | N#CC(C(=N/NC(N)=S)/C(=N/NC(N)=S)C(C#N)c1ccc(Cl)cc1)c1ccc(Cl)cc1 (stereo unspecified) | > 100 µM | > 100 µM | > 100 µM | > 100 µM | > 100 µM | > 100 µM | > 100 µM | > 100 µM | > 100 µM |  |  |  |  |  |  |  |  | 
8 | CCc1cccc(C(C)CC)c1NC(=O)C(=O)C(CC(=O)Nc1ccc(Cl)c(Cl)c1)C(=O)OC (stereo unspecified) | > 100 µM | > 100 µM | > 100 µM | > 100 µM | > 100 µM | > 100 µM | > 100 µM | > 100 µM | > 100 µM |  |  |  |  |  |  |  |  | 
9 | Cc1nc(Nc2ccccc2)sc1C(=O)NNc1ccc([N+](=O)[O-])cc1[N+](=O)[O-] | > 100 µM | 71.2 µM | > 100 µM | > 100 µM | > 100 µM | > 100 µM | > 100 µM | > 100 µM | > 100 µM |  |  |  |  |  |  |  |  | 
10 | N#C/C(N)=C(\C#N)N=Cc1csc2ccccc12 | > 100 µM | > 100 µM | > 100 µM | > 100 µM | > 100 µM | > 100 µM | > 100 µM | > 100 µM | > 100 µM | 34.2 µM | 27 µM | 90.4 µM | > 100 µM | > 100 µM | 67.1 µM | 51.5 µM | 26.9 µM | 91.2 µM
11 | O=C(O)/C(=C\c1ccccc1Cl)S(=O)(=O)c1ccccc1 | > 100 µM |  | > 100 µM | > 100 µM | > 100 µM | > 100 µM | > 100 µM | > 100 µM | > 100 µM |  |  |  |  |  |  |  |  | 
12 | CC(=O)[C-](C(C)=O)c1ccccc1.CC(=O)[C-](C(C)=O)c1ccccc1.CC[O-].CC[O-].[Ti+4] | > 100 µM | > 100 µM | > 100 µM | > 100 µM |  | > 100 µM | > 100 µM | > 100 µM | > 100 µM | > 100 µM | > 100 µM | > 100 µM | > 100 µM |  | > 100 µM | > 100 µM | > 100 µM | > 100 µM
13 | N[C@@H]1CCCC[C@@H]1N.O=C([O-])CN(CP(=O)([O-])[O-])CP(=O)([O-])[O-].[Pt+2] | > 100 µM |  | > 100 µM | > 100 µM | > 100 µM |  | > 100 µM | > 100 µM | > 100 µM | > 100 µM |  | > 100 µM | > 100 µM | > 100 µM |  | > 100 µM | > 100 µM | > 100 µM
14 | C#C[C@H](CCCC)OC(=O)N[C@H](C)c1ccccc1 | > 100 µM | > 100 µM |  | > 100 µM | > 100 µM | 99 µM | > 100 µM | 75.8 µM | > 100 µM |  |  |  |  |  |  |  |  | 
15 | c1cc(-c2cn[nH]c2)cc(-c2cn[nH]c2)c1 | > 100 µM | 58.6 µM | > 100 µM | > 100 µM | > 100 µM |  | > 100 µM | 58.4 µM | > 100 µM |  |  |  |  |  |  |  |  | 
16 | COc1cc(Cl)c2c3c(c(C(=O)c4ccccc4)oc13)CCC2 | > 100 µM | > 100 µM | > 100 µM |  | > 100 µM |  | > 100 µM |  | > 100 µM |  |  |  |  |  |  |  |  | 
17 | CC1(C)CC(=O)C(=[N+]=[N-])C(=O)C1 | > 100 µM | > 100 µM | > 100 µM | > 100 µM |  | > 100 µM | > 100 µM |  | > 100 µM |  |  |  |  |  |  |  |  | 
18 | COc1cc(NCC2COc3c(ccc(OC)c3OC)C2=O)c([N+](=O)[O-])cc1OC (stereo unspecified) | > 100 µM | > 100 µM |  | > 100 µM | > 100 µM | > 100 µM | > 100 µM | > 100 µM | > 100 µM |  |  |  |  |  |  |  |  | 
